Results from publication PMC7175281, “Polyphenolic Compounds from Lespedeza Bicolor Root Bark Inhibit Progression of Human Prostate Cancer Cells via Induction of Apoptosis and Cell Cycle Arrest” (Biomolecules, 2020).
Entries after “also recorded” stand apart in the source; their conditions may differ.

What was measured:
[1] = tested on: 22Rv1 human prostate cancer cells; experiment: MTT assay, 22Rv1 cells; assay type: cell-based; settings: treated for 48 h
Method: (§1) The human prostate cancer cell lines PC-3 [docetaxel-resistant, androgen-independent, AR-FL(-), AR-V7(-)], 22Rv1 [docetaxel-sensitive, androgen-independent, AR-FL(+), AR-V7(+)], and the human non-cancer fibroblast cell line MRC-9 were used. PC-3 and 22Rv1 were purchased from ATCC (Manassas, VA, USA). MRC-9 cells were kindly donated by Prof. Dr. med. Sonja Loges (University Medical Center Hamburg-Eppendorf, Hamburg, Germany). Cells were cultured according to the manufacturers’ protocol in 10% FBS/RPMI (PC-3 and 22Rv1) or 10% FBS/DMEM (MRC-9) medium.
(§2) In vitro drug sensitivity MTT assay was performed as previously described. In total, 6000 cells/well were seeded in 96-well plates, incubated overnight, and treated with the investigated drugs for 48 h.

[2] = tested on: MRC-9 human non-cancer fibroblast cells; experiment: MTT assay, MRC-9 non-cancer fibroblasts; assay type: cell-based; settings: treated for 48 h
Method: as §1, §2

[3] = tested on: PC-3 human prostate cancer cells; experiment: MTT assay, PC-3 cells; assay type: cell-based; settings: for IC50: PC-3 cells, MTT, treated for 48 h; for Selectivity index (MRC-9 vs. PC-3): [IC50 in MRC-9 cells] / [IC50 in PC-3 cells]
Method: as §1, §2

PC-3 cells [4] = experiment: DNA fragmentation / apoptosis induction by flow cytometry (PI staining, sub-G1); assay type: cell-based, human; settings: PC-3 cells, 0.5, 1, 5 and 10 µM, 24 h (Figure 3)
Method: (§3) The effect of the compounds on apoptosis induction and cell cycle progression was analyzed by flow cytometry technique using PI staining as reported before. Cells (0.2 × 10^6 cells/well) were seeded in six-well plates, incubated overnight, and treated with the investigated drugs for 48 h. The cells were further harvested, fixed with 70% EtOH/H2O, stained with propidium iodide (PI), and analyzed using a FACS Calibur machine (BD Bioscience, San Jose, CA, USA). The results were quantified using BD Bioscience Cell Quest Pro software (v.5.2.1., BD Bioscience).
To investigate the mechanism of action contributing to the cytotoxicity in PC-3 cells, we investigated the effects on DNA fragmentation, a well-established marker of cellular apoptosis. Therefore, we evaluated the effects of the isolated compounds at four different concentrations of 0.5 µM, 1 µM, 5 µM, and 10 µM by flow cytometry (Figure 3). […] Therefore, prenylated dimeric flavonoid 8 may either reveal a non-apoptotic character of cell death or a predominantly antiproliferative rather than cytotoxic effect.
Figure 3 Effect of natural compounds on DNA fragmentation of PC-3 cells. Cells were treated with the investigated compounds for 24 h. The effects were analyzed by flow cytometry. Cells detected as sub-G1 population were considered to be apoptotic. Cisplatin (Cis) was used as a positive control. * p ≤ 0.05 (Student’s t-test).

[5] = tested on: CDK1–CDK9 mRNA in PC-3 cells; experiment: qPCR of CDK1-CDK9 mRNA expression; assay type: cell-based, human; settings: 24 h, normalized to GAPDH (Figure 5)
Method: The CDKs gene expression was measured using qPCR technique. PC-3 cells were seeded in Petri dishes (1 × 10^6 cells per ø 6 cm dish in 5 mL) in standard culture media, incubated overnight and treated with the investigated drugs in the fresh culture media for 24 h. Cells were harvested using the cell scraper, washed with PBS and homogenized using QIAshredder (QIAGEN, Hilden, Germany). The total RNA was isolated using PureLink® RNA Mini Kit (Invitrogen, Carlsbad, CA, USA) and the on-column DNA digestion using PureLink™ DNase (Invitrogen). Correspondent RNA (2 µg in 30 µL) and was transcribed into cDNA using Maxima First Strand cDNA Synthesis Kit for RT-qPCR (Thermo Scientific, Vilnius, Lithuania). The following qPCR was performed using 2X KAPA SYBR FAST qPCR Master Mix Optimized for Roche LightCycler 480 (KAPA biosystems, Worburn, MA, USA) according to the manufacturer’s protocol. In total, 20 ng of the template cDNA and 2 pmol of primers were used for each reaction. The PCR conditions were 30 s at 95 °C, followed by 40 cycles of 15 s at 95 °C, 5 s at melting temperature (Tm), and 26 s at 72 °C (fluorescence measurement). Melting curve analysis was performed under the following conditions directly after the PCR run: 10 s at 95 °C, 60 s at 65 °C and 1 s at 97 °C. Relative gene expression was calculated using the 2^-∆∆CT method. The expression of CDKs was normalized to GAPDH gene expression. The analysis was performed using primers, purchased from Eurofins MWG-Biotech AG (Ebersberg, Germany).
Due to the significant alterations of the cell cycle, we further investigated the effects of the isolated compounds on the cyclin-dependent kinases (CDKs). These proteins are known to control proliferation as well as some apoptotic processes. We have examined the expression of mRNAs corresponding to the nine most studied CDKs known to be involved in the cell cycle progression of cancer cells, namely, CDK1–CDK9. […] Remarkably, these effects correlated well with the cytotoxicity of the isolated compounds.
Figure 5 Expression of mRNA correspondent to CDK1-9 in PC-3 cells treated with the isolated compounds 1–8 for 24 h. The target gene expression was normalized to GAPDH gene expression. * p ≤ 0.05 (Student’s t-test).

PC-3 cells [6] = experiment: Cell cycle progression by flow cytometry (PI staining); assay type: cell-based, human; settings: 24 h (Figure 4)
Method: as §3
Next, we examined the effects of the isolated compounds on the cell cycle progression of PC-3 cells. For compounds 1–3, a significant accumulation of the cells in S-phase as well as slight accumulation in G2/M-phase was observed (Figure 4).
Figure 4 Treatment effects on the progression of the cell cycle of PC-3 cells. Cells were treated with the investigated compounds for 24 h. The effects were analyzed by flow cytometry. Cisplatin was used as a positive control. * p ≤ 0.05 (Student’s t-test).

[7] = Homo sapiens, MRC9, MRC-9 cells

Structure (SMILES)	IC50 ([1]; Homo sapiens) [µM]	IC50 ([3]; Homo sapiens) [µM]	IC50 [2, 7] [µM]	Selectivity index (MRC-9 vs. PC-3) [3]	Apoptosis induction (DNA fragmentation, sub-G1 population) (PC-3 cells [4])	Effect on expression of mRNA corresponding to CDK1-9 [5]	IC50 [1] [µM]	IC50 ([2]; MRC-9 cells) [µM]	IC50 [3] [µM]	Effect on cell cycle progression (PC-3 cells [6])
CC(C)=CCC[C@@]1(C)C=Cc2c(c(O)cc3c2O[C@H]2c4ccc(O)cc4OC[C@@H]32)O1 [Compound 5]	35.8	15.2	24.6	1.62	–	–	–	–	–	–
CC(C)=CCC[C@]1(C)C=Cc2c(c(O)cc3c2O[C@H]2c4ccc(O)cc4OC[C@@H]32)O1 [Compound 4]	29.5	16.4	27.2	1.66	–	–	–	–	–	–
CC(C)=CCC/C(C)=C/Cc1c(O)c(O)cc(C(=O)C(=O)c2ccc(O)cc2O)c1O [Compound 6]	46.9	19.3	> 50	>2.6	–	–	–	–	–	–
N.N.[Cl][Pt][Cl] [Cisplatin, reference compound]	–	–	–	0.72	–	–	4.53	15.1	21	–
COc1cc2c(c(C/C=C(\C)CCC=C(C)C)c1O)O[C@H]1c3ccc(O)cc3OC[C@@H]21 [Compound 7, (6aR,11aR)-8-O-methyl-6a,11a-dihydrolespedezol A2]	30.5	14.9	24.4	1.64	–	did not exhibit this activity	–	–	–	G1-phase arrest instead of S-phase arrest

More lines, main results first:

IC50 ([1]; Homo sapiens) [µM]	IC50 ([3]; Homo sapiens) [µM]	Structure (SMILES)	IC50 [2, 7] [µM]	Selectivity index (MRC-9 vs. PC-3) [3]	Apoptosis induction (DNA fragmentation, sub-G1 population) (PC-3 cells [4])	Effect on expression of mRNA corresponding to CDK1-9 [5]	IC50 [1] [µM]	IC50 ([2]; MRC-9 cells) [µM]	IC50 [3] [µM]	Effect on cell cycle progression (PC-3 cells [6])
6.38	2.1	CC(C)=CCC/C(C)=C/Cc1c(O)c(O)cc2c1O[C@H]1c3cc(CC=C(C)C)c(O)cc3OC[C@@H]21 [Compound 3]	16.8	7.99	most pronounced apoptosis-inducing effect	inhibitory effects; also recorded: strongest inhibitory effect	–	–	–	–
20.1	6.73	CC(C)=CCC/C(C)=C/Cc1c(O)c(O)cc2c3c(oc12)-c1ccc(O)cc1OC3 [Compound 1]	48.5	7.21	–	inhibitory effects	–	–	–	–
13.8	5.24	CC(C)=CCC/C(C)=C/Cc1c(O)c(O)cc2c1O[C@H]1c3ccc(O)cc3OC[C@@H]21 [Compound 2]	37.6	7.17	–	inhibitory effects; also recorded: fairly active	–	–	–	–
17.5	9.24	CC(C)=CCC/C(C)=C/Cc1c(O)c(C(=O)c2c(-c3ccc(O)cc3O)oc3c(C/C=C(\C)CCC=C(C)C)c(O)c(O)cc23)cc2c1O[C@H]1c3ccc(O)cc3OC[C@@H]21 [Compound 8, Lespebicolin A]	23.9	2.59	apart from structurally different lespebicolin A (8)	did not exhibit any pronounced effect on CDKs mRNA expression	–	–	–	could not induce an S-phase cell cycle arrest
